Results from patent publication US6492391B1, “Crystal modification d of 8-cyano-1-cyclopropyl-7-(1s, 6s- 2,8-diazabicyclo-[4.3.0]nonan-8-yl)-6-fluoro-1,4- dihydro-4-oxo-3-quinolinecarboxylic acid” (Bayer Aktiengesellschaft, priority 1999, dated 2002).

Columns and labels:
[1] = storage stability of the crystal modification; format: physicochemical; conditions: prolonged storage; solid state
Description: For these reasons, it is highly suitable for preparing tablets or other solid formulations. Owing to its stability, it gives these formulations the desired long-lasting storage stability. Using the crystal modification D, it is therefore possible to prepare, in a defined and targeted manner, stable solid preparations of CCDC.

pathogenic bacteria = assay: activity against pathogenic bacteria; conditions: human or veterinary medicine
Description: Its broad area of use corresponds to that of CCDC.

[2] = hygroscopicity of the solid; format: physicochemical; conditions: powder obtained by the prior-art preparation process
Description: The partially amorphous powder which is obtained by the preparation process outlined above is furthermore hygroscopic. However, amorphous solids, and in particular hygroscopic solids, are difficult to handle when being processed pharmaceutically since, for example, they have low bulk densities and unsatisfactory flow properties. Moreover, the handling of hygroscopic solids requires special work techniques and apparatuses to obtain reproducible results, for example with respect to the active compound content or the stability of the solid formulations produced.

Row | Structure (SMILES) | stability of the crystal modification on storage [1] | activity against pathogenic bacteria (pathogenic bacteria) | hygroscopicity [2]
1 | N#Cc1c(N2C[C@@H]3CCCN[C@@H]3C2)c(F)cc2c(=O)c(C(=O)O)cn(C3CC3)c12 [CCDC of the crystal modification D, 8-cyano-1-cyclopropyl-7-(1S,6S-2,8-diazabicyclo[4.3.0]nonan-8-yl)-6-fluoro-1,4-dihydro-4-oxo-3-quinolinecarboxylic acid] | surprisingly stable and does not change into another crystal modification or the amorphous form, even on prolonged storage | highly active | 
2 | N#Cc1c(N2C[C@@H]3CCCN[C@@H]3C2)c(F)cc2c(=O)c(C(=O)O)cn(C3CC3)c12 [partially amorphous powder, 8-cyano-1-cyclopropyl-7-(1S,6S-2,8-diazabicyclo[4.3.0]nonan-8-yl)-6-fluoro-1,4-dihydro-4-oxo-3-quinolinecarboxylic acid] |  |  | hygroscopic
